Reference: patent US20220356147A1, “COMPOUNDS AND METHODS FOR POTENTIATING COLISTIN ACTIVITY” (University of Notre Dame du Lac, priority 2019, published 2022)
“And” between values parts separate entries of the source, which are not always exact repeats. Identical values can stand only once.

These molecules were tested on A. baumannii 4106 (AB4106) (assay: Broth microdilution, colistin potentiation). Conditions: compound at 1 μM.
Format: cell-based
Experimental: (§1) Broth microdilution method for measurement of colistin potentiation: Bacteria were cultured for 4 to 6 hours in CAMHB and diluted to 1.04×10^6 CFU/mL for AB 4106 and 1.96×10^6 CFU/mL for KP B9 in fresh CAMHB. To aliquots (4 mL) was added compound from stock solutions in DMSO. One aliquot was not dosed to allow measurement of the colistin MIC in the absence of compound. A 1 mL aliquot of each sample was dosed with colistin, and from this 200 μL was dispensed into the first row of a 96-well microtiter plate in which all but the final row of subsequent wells was prefilled with 100 μL of the corresponding compound dosed bacterial suspension The final row was filled with media to act as a sterility control and blank. Row one wells were mixed 6-7 times, then, 100 μL was withdrawn and transferred to row two. Row two wells were mixed 6-7 times followed by a 100 μL transfer from row two to row three. This procedure was used to serially dilute the rest of the rows of the microtiter plate, excluding the last prefilled row, which was used to measure growth in the presence of compound alone. Plates were then sealed with GLAD
(§2) Press'n Seal and incubated under stationary conditions at 37° C. […] MIC values were determined as the minimum concentration required to achieve 90% growth inhibition compared to growth in untreated wells.

Colistin MIC fold reduction, AB 4106 [fold] | Compound
128 | O=C(Nc1cc(C(F)(F)F)cc(C(F)(F)F)c1)c1cc(I)ccc1O [Compound 10]
≤ 16 | O=C(Nc1cc(C(F)(F)F)cc(C(F)(F)F)c1)c1cccc(Cl)c1O [Compound 5]
32 | O=C(Nc1cc(C(F)(F)F)cc(C(F)(F)F)c1)c1cc(Cl)cc(Cl)c1O [Compound 14]
64 | O=C(Nc1cc(C(F)(F)F)cc(C(F)(F)F)c1)c1cc(F)ccc1O [Compound 8]
256 | O=C(Nc1ccc(C(F)(F)F)cc1C(F)(F)F)c1cc(Cl)ccc1O [Compound 18]
128 | O=C(Nc1cc(C(F)(F)F)ccc1C(F)(F)F)c1cc(Cl)ccc1O [Compound 17]
128 | O=C(Nc1cc(C(F)(F)F)cc(C(F)(F)F)c1)c1ccc(C(F)(F)F)cc1O [Compound 15]

Compound | Colistin MIC fold reduction, AB 4106 [fold]
O=C(Nc1cc(C(F)(F)F)cc(C(F)(F)F)c1Br)c1cc(Cl)ccc1O [Compound 24] | 512
O=C(Nc1cc(C(F)(F)F)cc(C(F)(F)F)c1)c1cc(-c2ccccc2)ccc1O [Compound 13] | 32
O=C(Nc1cc(Cl)cc(Cl)c1)c1cc(I)ccc1O [Compound 51] | 512

Same assay, conditions: compound at 3 μM

Colistin MIC fold reduction, AB 4106 [fold] | Compound
1024 | O=C(Nc1cc(C(F)(F)F)cc(C(F)(F)F)c1)c1cc(I)ccc1O [Compound 10]
256 | O=C(Nc1cc(C(F)(F)F)cc(C(F)(F)F)c1)c1cccc(Cl)c1O [Compound 5]
512 | O=C(Nc1cc(C(F)(F)F)cc(C(F)(F)F)c1)c1cc(Cl)cc(Cl)c1O [Compound 14]
1024 | O=C(Nc1cc(C(F)(F)F)cc(C(F)(F)F)c1)c1cc(F)ccc1O [Compound 8]
1024 | O=C(Nc1ccc(C(F)(F)F)cc1C(F)(F)F)c1cc(Cl)ccc1O [Compound 18]
512 | O=C(Nc1cc(C(F)(F)F)ccc1C(F)(F)F)c1cc(Cl)ccc1O [Compound 17]
512 | O=C(Nc1cc(C(F)(F)F)cc(C(F)(F)F)c1)c1ccc(C(F)(F)F)cc1O [Compound 15]

Compound | Colistin MIC fold reduction, AB 4106 [fold]
O=C(Nc1cc(C(F)(F)F)cc(C(F)(F)F)c1Br)c1cc(Cl)ccc1O [Compound 24] | 2048
O=C(Nc1cc(C(F)(F)F)cc(C(F)(F)F)c1)c1cc(-c2ccccc2)ccc1O [Compound 13] | 256
O=C(Nc1cc(Cl)cc(Cl)c1)c1cc(I)ccc1O [Compound 51] | 2048

Same assay, conditions: compound at 5 μM

Compound | Colistin potentiation activity in words, AB4106
O=C(Nc1cc(C(F)(F)F)cc(C(F)(F)F)c1)c1cc(I)ccc1O [Compound 10] | superior activity to IMD-0354

Same assay, conditions: compound at 5 μM; colistin alone 2048 μg/mL

Colistin MIC fold reduction, AB 4106 [fold] | Compound
4096 | O=C(Nc1cc(C(F)(F)F)cc(C(F)(F)F)c1)c1cc(I)ccc1O [Compound 10]
512 | O=C(Nc1cc(C(F)(F)F)cc(C(F)(F)F)c1)c1cccc(Cl)c1O [Compound 5]
512 | O=C(Nc1cc(C(F)(F)F)cc(C(F)(F)F)c1)c1cc(Cl)cc(Cl)c1O [Compound 14]
1024 | O=C(Nc1cc(C(F)(F)F)cc(C(F)(F)F)c1)c1cc(F)ccc1O [Compound 8]
1024 | O=C(Nc1ccc(C(F)(F)F)cc1C(F)(F)F)c1cc(Cl)ccc1O [Compound 18]
1024 | O=C(Nc1cc(C(F)(F)F)ccc1C(F)(F)F)c1cc(Cl)ccc1O [Compound 17]
2048 | O=C(Nc1cc(C(F)(F)F)cc(C(F)(F)F)c1)c1ccc(C(F)(F)F)cc1O [Compound 15]

Compound | Colistin MIC fold reduction, AB 4106 [fold]
O=C(Nc1cc(C(F)(F)F)cc(C(F)(F)F)c1Br)c1cc(Cl)ccc1O [Compound 24] | 4096
O=C(Nc1cc(C(F)(F)F)cc(C(F)(F)F)c1)c1cc(-c2ccccc2)ccc1O [Compound 13] | 512
O=C(Nc1cc(Cl)cc(Cl)c1)c1cc(I)ccc1O [Compound 51] | 2048

Same assay, conditions: in presence of compound at 1 μM

Compound | Colistin MIC against AB 4106 [µg/mL]
O=C(Nc1cc(C(F)(F)F)cc(C(F)(F)F)c1Br)c1cc(Cl)ccc1O [Compound 24] | 4
O=C(Nc1cc(C(F)(F)F)cc(C(F)(F)F)c1)c1cc(-c2ccccc2)ccc1O [Compound 13] | 64

Same assay, conditions: in presence of compound at 3 μM

Compound | Colistin MIC against AB 4106 [µg/mL]
O=C(Nc1cc(C(F)(F)F)cc(C(F)(F)F)c1Br)c1cc(Cl)ccc1O [Compound 24] | 1
O=C(Nc1cc(C(F)(F)F)cc(C(F)(F)F)c1)c1cc(-c2ccccc2)ccc1O [Compound 13] | 8

Same assay, conditions: in presence of compound at 5 μM

Compound | Colistin MIC against AB 4106
O=C(Nc1cc(C(F)(F)F)cc(C(F)(F)F)c1Br)c1cc(Cl)ccc1O [Compound 24] | 1 µg/mL and 0.5 µg/mL
O=C(Nc1cc(C(F)(F)F)cc(C(F)(F)F)c1)c1cc(-c2ccccc2)ccc1O [Compound 13] | 4 µg/mL

What follows are molecules tested on K. pneumoniae B9 (KPB9) (assay: Broth microdilution, colistin potentiation). Conditions: compound at 500 nM.
Format: cell-based
Experimental: as §1, §2

Compound | ability to break colistin resistance, KPB9
O=C(Nc1cc(Cl)cc(Cl)c1)c1cc(I)ccc1O [Compound 51] | retained the ability to break colistin resistance

Same assay, conditions: compound at 5 μM

Compound | Colistin potentiation activity in words, KPB9
O=C(Nc1cc(C(F)(F)F)cc(C(F)(F)F)c1)c1cc(I)ccc1O [Compound 10] | equipotent activity

The molecules below were run on AB 3941 (assay: Colistin potentiation, colistin-resistant isolate panel). Conditions: compound at 5 μM.
Format: cell-based, A. baumannii

Compound | Colistin MIC against AB 3941 [µg/mL] | Colistin MIC fold reduction, AB 3941
O=C(Nc1cc(C(F)(F)F)cc(C(F)(F)F)c1Br)c1cc(Cl)ccc1O [Compound 24] | 1 | 
O=C(Nc1cc(C(F)(F)F)cc(C(F)(F)F)c1)c1cc(-c2ccccc2)ccc1O [Compound 13] | 16 | 
O=C(Nc1cc(Cl)cc(Cl)c1)c1cc(I)ccc1O [Compound 51] |  | (1024) fold

Each molecule was assayed on AB 4119 in the same assay as above. Conditions: compound at 5 μM.
Format: cell-based, A. baumannii

Compound | Colistin MIC against AB 4119 [µg/mL] | Colistin MIC fold reduction, AB 4119
O=C(Nc1cc(C(F)(F)F)cc(C(F)(F)F)c1Br)c1cc(Cl)ccc1O [Compound 24] | 0.125 | 
O=C(Nc1cc(C(F)(F)F)cc(C(F)(F)F)c1)c1cc(-c2ccccc2)ccc1O [Compound 13] | 2 | 
O=C(Nc1cc(Cl)cc(Cl)c1)c1cc(I)ccc1O [Compound 51] |  | (2048) fold

These molecules were tested on AB 17978 mcr-1 in the same assay as above. Conditions: compound at 5 μM.
Format: cell-based, A. baumannii

Compound | Colistin MIC against AB 17978 mcr-1 [µg/mL] | Colistin MIC fold reduction, AB 17978 mcr-1
O=C(Nc1cc(C(F)(F)F)cc(C(F)(F)F)c1Br)c1cc(Cl)ccc1O [Compound 24] | 0.25 | 
O=C(Nc1cc(C(F)(F)F)cc(C(F)(F)F)c1)c1cc(-c2ccccc2)ccc1O [Compound 13] | 4 | 
O=C(Nc1cc(Cl)cc(Cl)c1)c1cc(I)ccc1O [Compound 51] |  | (512) fold

What follows are molecules tested on AB 4106 (assay: Broth microdilution, standalone MIC of compound). Conditions: Acinetobacter baumannii, 16 h; standalone, no colistin; read-out: MIC of compound alone, AB 4106.
Format: cell-based, A. baumannii
Experimental: Broth microdilution method for the determination of minimum inhibitory concentrations: Bacteria were cultured for 4 to 6 hours in CAMHB and subcultured to 1.04×10^6 CFU/mL for AB 4106 and 1.96×10^6 CFU/mL for KP B9 in fresh CAMHB. To aliquots (1 mL) was added compound from stock solutions in DMSO, such that the compound concentration equaled the highest concentration tested. Samples were then dispensed (200 μL) into the first row of a 96-well microtiter plate in which all but the final row of subsequent wells were prefilled with 100 μL of the untreated bacterial subculture. The final row was filled with media to act as a sterility control and blank. Row one wells were mixed 6-7 times, then, 100 μL was withdrawn and transferred to row two. Row two wells were mixed 6-7 times followed by a 100 μL transfer from row two to row three. This procedure was used to serially dilute the rest of the rows of the microtiter plate, excluding the last prefilled row, which was used to measure growth in the absence of compound. Plates were then sealed with GLAD Press'n Seal and incubated under stationary conditions at 37 C. […] MIC values were determined as the minimum concentration required to achieve 90% growth inhibition compared to growth in untreated wells.

MIC [µM] | Compound
> 200 | O=C(Nc1cc(C(F)(F)F)cc(C(F)(F)F)c1)c1cc(I)ccc1O [Compound 10]
100 | O=C(Nc1cc(C(F)(F)F)cc(C(F)(F)F)c1)c1cccc(Cl)c1O [Compound 5]
100 | O=C(Nc1cc(C(F)(F)F)cc(C(F)(F)F)c1)c1cc(Cl)cc(Cl)c1O [Compound 14]
> 200 | O=C(Nc1cc(C(F)(F)F)cc(C(F)(F)F)c1)c1cc(F)ccc1O [Compound 8]
> 200 | O=C(Nc1ccc(C(F)(F)F)cc1C(F)(F)F)c1cc(Cl)ccc1O [Compound 18]
> 200 | O=C(Nc1cc(C(F)(F)F)ccc1C(F)(F)F)c1cc(Cl)ccc1O [Compound 17]
> 200 | O=C(Nc1cc(C(F)(F)F)cc(C(F)(F)F)c1)c1ccc(C(F)(F)F)cc1O [Compound 15]

Compound | MIC [µM]
O=C(Nc1cc(Cl)cc(Cl)c1)c1cc(I)ccc1O [Compound 51] | > 200

Same assay, conditions: standalone, no colistin; read-out: MIC of compound alone, AB 4106

Compound | MIC [µM]
O=C(Nc1cc(C(F)(F)F)cc(C(F)(F)F)c1Br)c1cc(Cl)ccc1O [Compound 24] | >200
O=C(Nc1cc(C(F)(F)F)cc(C(F)(F)F)c1)c1cc(-c2ccccc2)ccc1O [Compound 13] | >200

Each molecule was assayed on AB4106 and KPB9 (assay: Initial screen for colistin resistance suppression, statements in words for both strains). Conditions: compound at 5 μM.
Format: cell-based, A. baumannii and K. pneumoniae
Experimental: as §1, §2

Compound | Colistin potentiation activity in words, compared to IMD-0354
O=C(Nc1cc(C(F)(F)F)cc(C(F)(F)F)c1)c1cc(I)ccc1O [Compound 10] | essentially equipotent activity to IMD-0354
O=C(Nc1cc(C(F)(F)F)cc(C(F)(F)F)c1)c1cccc(Cl)c1O [Compound 5] | essentially equipotent activity to IMD-0354
O=C(Nc1cc(C(F)(F)F)cc(C(F)(F)F)c1)c1cc(Cl)cc(Cl)c1O [Compound 14] | four-fold less active than 15
O=C(Nc1cc(C(F)(F)F)cc(C(F)(F)F)c1)c1cc(F)ccc1O [Compound 8] | essentially equipotent activity to IMD-0354
O=C(Nc1ccc(C(F)(F)F)cc1C(F)(F)F)c1cc(Cl)ccc1O [Compound 18] | retained activity against KPB9 and AB4106 equivalent to IMD-0354
O=C(Nc1cc(C(F)(F)F)ccc1C(F)(F)F)c1cc(Cl)ccc1O [Compound 17] | retained activity against KPB9 and AB4106 equivalent to IMD-0354
O=C(Nc1cc(C(F)(F)F)cc(C(F)(F)F)c1)c1ccc(C(F)(F)F)cc1O [Compound 15] | equipotent activity to IMD-0354

Each molecule was assayed on AB 3942 (assay: Colistin potentiation, colistin-resistant isolate panel). Conditions: compound at 5 μM.
Format: cell-based, A. baumannii

Compound | Colistin MIC against AB 3942 [µg/mL] | Colistin MIC fold reduction, AB 3942
O=C(Nc1cc(C(F)(F)F)cc(C(F)(F)F)c1Br)c1cc(Cl)ccc1O [Compound 24] | 0.5 | 
O=C(Nc1cc(C(F)(F)F)cc(C(F)(F)F)c1)c1cc(-c2ccccc2)ccc1O [Compound 13] | 32 | 
O=C(Nc1cc(Cl)cc(Cl)c1)c1cc(I)ccc1O [Compound 51] |  | (≥4096) fold

What follows are molecules tested on AB 4112 in the same assay as above. Conditions: compound at 5 μM.
Format: cell-based, A. baumannii

Compound | Colistin MIC against AB 4112 [µg/mL] | Colistin MIC fold reduction, AB 4112
O=C(Nc1cc(C(F)(F)F)cc(C(F)(F)F)c1Br)c1cc(Cl)ccc1O [Compound 24] | 0.25 | 
O=C(Nc1cc(C(F)(F)F)cc(C(F)(F)F)c1)c1cc(-c2ccccc2)ccc1O [Compound 13] | 8 | 
O=C(Nc1cc(Cl)cc(Cl)c1)c1cc(I)ccc1O [Compound 51] |  | (2048) fold
